# Data taken from patent US5200335A (Forschungszentrum Juelich GmbH, priority 1990, dated 1993).
# “Also recorded” adds a separate entry of the source. Where two headings read alike, the source gives them in different places.
# T1: phenylethanol dehydrogenase (Lentilactobacillus kefiri, UniProt Q6WVP7)
# T1 sequence (Q6WVP7 2-252 limits assumed): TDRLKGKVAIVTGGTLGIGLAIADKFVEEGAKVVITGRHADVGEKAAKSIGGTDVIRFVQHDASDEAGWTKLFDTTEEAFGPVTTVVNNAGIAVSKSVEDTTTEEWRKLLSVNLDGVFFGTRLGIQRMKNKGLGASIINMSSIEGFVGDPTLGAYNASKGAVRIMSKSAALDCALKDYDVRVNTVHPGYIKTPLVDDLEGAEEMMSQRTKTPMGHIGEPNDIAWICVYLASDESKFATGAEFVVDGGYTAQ
# Assays:
# [1] = target: T1, phenylethanol dehydrogenase; experiment: Effect of metal cations, inhibitors and SH-protecting reagents on enzyme activity; assay type: biochemical, Lactobacillus kefir
# Method: Partially purified enzyme (after Mono-Q chromatography, concentrated 20-fold) was employed for the following tests.
# (i) METAL CATIONS: The effect of Mg^2+, […] and Mn^2+ ions was investigated using the assay mixture detailed below. […]
# (ii) INHIBITORS AND SH-[…]: An assay mixture according to Example 2 C(i) without added metal cations but with addition of various inhibitors or SH-[…] at a final concentration of 1 mM was used to determine the effect of certain enzyme inhibitors and SH-[…] on enzyme activity. […] Phenylmethanesulfonyl fluoride was dissolved in acetonitrile to a final concentration of acetonitrile of […]. Acetonitrile alone had no effect on the enzyme activity in control tests.
# [2] = target: T1, phenylethanol dehydrogenase; experiment: NADPH-dependent reduction: substrate spectrum and dependence of reaction rate on acetophenone/NADPH concentration
# [3] = target: T1, phenylethanol dehydrogenase; experiment: NADP+-dependent oxidation / reverse reaction with R(+)- or S(-)-phenylethanol; settings: for Vmax: NADP+-dependent oxidations; for Enzyme activity (oxidation): 11 mM alcohol, pH 8.0, NADP+, 340 nm, 30° C.; for Stereospecificity / effect on the enzyme (in words): comparison of mixtures I, II and III
# Method: (§1) The optimum pH for the reverse reaction, the oxidation of phenylethanol, was measured in an analogous manner. (±)-Phenylethanol (22 mM) was dissolved in aliquots of a 0.1M buffer and the pH was adjusted to a range from 4.0 to 10.0.
# (§2) A third mixture containing 22 mM (±)-phenylethanol was employed for comparison. Enzyme activity was measured by photometry at 340 nm at 30° C.
# [4] = substrate: C[C@@H](O)c1ccccc1; experiment: cells, lysate or membranes named; settings: other: NADP+-dependent oxidations; 30.0 °C
# Method: as §1, §2
# [5] = substrate: NC(=O)c1ccc[n+]([C@@H]2O[C@H](COP(=O)(O)OP(=O)(O)OC[C@H]3O[C@@H](n4cnc5c(N)ncnc54)[C@H](OP(=O)(O)O)[C@@H]3O)[C@@H](O)[C@H]2O)c1; experiment: cells, lysate or membranes named; settings: other: NADP+-dependent oxidations; 30.0 °C
# Method: as §1, §2
# [6] = substrate: CC(O)c1ccccc1; experiment: cells, lysate or membranes named; settings: other: NADP+-dependent oxidations; 30.0 °C
# Method: as §1, §2
# [7] = substrate: CC(C)O; experiment: cells, lysate or membranes named; settings: other: NADP+-dependent oxidations; 30.0 °C
# [8] = substrate: CCCCCCC(C)=O; experiment: purified protein, by the assay type; settings: other: NADPH-dependent reductions, pH 7.0, 0.2 mM NADPH, partially purified enzyme, 30.0 °C
# [9] = substrate: CC(=O)C(C)(C)C; experiment: purified protein, by the assay type; settings: pH 7.0; 30.0 °C
# [10] = substrate: NC(=O)C1=CN([C@@H]2O[C@H](COP(=O)(O)OP(=O)(O)OC[C@H]3O[C@@H](n4cnc5c(N)ncnc54)[C@H](OP(=O)(O)O)[C@@H]3O)[C@@H](O)[C@H]2O)C=CC1; experiment: purified protein, by the assay type; settings: other: NADPH 13 to 380 μM, 5.3 mM acetophenone, pH 7.0, 30° C.
# [11] = substrate: CCCCCC(=O)CC; experiment: purified protein, by the assay type; settings: other: NADPH-dependent reductions, pH 7.0, 0.2 mM NADPH, partially purified enzyme, 30.0 °C
# [12] = substrate: CCC(=O)c1ccccc1; experiment: purified protein, by the assay type; settings: pH 7.0; 30.0 °C
# [13] = substrate: CC(=O)c1ccccc1; experiment: purified protein, by the assay type; settings: other: acetophenone 50-7100 μM, 0.2 mM NADPH, pH 7.0, 30° C.
# [14] = substrate: CC(=O)CCc1ccccc1; experiment: purified protein, by the assay type; settings: other: NADPH-dependent reductions, pH 7.0, 0.2 mM NADPH, partially purified enzyme, 30.0 °C
# [15] = substrate: CC(C)=O; experiment: purified protein, by the assay type; settings: other: NADPH-dependent reductions, pH 7.0, 0.2 mM NADPH, partially purified enzyme, 30.0 °C
# [16] = substrate: CC(=O)c1ccc(Br)cc1; experiment: purified protein, by the assay type; settings: other: NADPH-dependent reductions, pH 7.0, 0.2 mM NADPH, partially purified enzyme, 30.0 °C
# [17] = substrate: CC(=O)c1ccc(Cl)cc1; experiment: purified protein, by the assay type; settings: pH 7.0; 30.0 °C
# [18] = pH 7; read-out: Activity remaining
# [19] = NADPH-dependent reductions, […]
# [20] = NADPH-dependent reductions, pH 7.0, 0.2 mM NADPH, partially purified enzyme
# [21] = pH 7, read-out: Activity remaining
# [22] = addition at final concentration 1 mM; 5.5 mM acetophenone, 0.2 mM NADPH, pH 7.0; partially purified enzyme
molecule,measurement,setting,value
O[C@H](CS)[C@H](O)CS (racemic) [Dithiothreitol],remaining activity at 1000 µM,[1]; [18],95%
"c1cnc2c(c1)ccc1cccnc12 [1,10-Phenanthroline]",Effect on enzyme activity (in words),[1],virtually no inhibition
same,remaining activity at 1000 µM,[1]; [18],99%
"CC(=O)C(=O)c1ccccc1 [1-Phenyl-1,2-propanedione]",Vmax,[2]; [19],70%
same,Reduction by the enzyme (in words),[2]; in the presence of NADPH,capable of catalyzing the reduction; also recorded: capable of reducing
"c1ccc(-c2ccccn2)nc1 [2,2'-Dipyridine]",Effect on enzyme activity (in words),[1],virtually no inhibition
same,remaining activity at 1000 µM,[1]; [18],106%
CC(=O)c1ccc(Br)cc1 [4-Bromoacetophenone],Vmax,[2]; [19],101%
same,Reduction by the enzyme (in words),"[2]; in the presence of NADPH, listed as p-bromoacetophenone",capable of catalyzing the reduction; also recorded: capable of reducing
CC(=O)c1ccc(Cl)cc1 [4-Chloroacetophenone],Vmax,[2]; [19],93%
same,Reduction by the enzyme (in words),"[2]; in the presence of NADPH, listed as p-chloroacetophenone",capable of catalyzing the reduction; also recorded: capable of reducing
CC(=O)CCc1ccccc1 [4-Phenyl-2-butanone],Vmax,[2]; [20],90%
same,Reduction by the enzyme (in words),[2]; in the presence of NADPH,capable of catalyzing the reduction; also recorded: capable of reducing
CC(C)=O [Acetone],Vmax,[2]; [19],96%
same,Reduction by the enzyme (in words),[2]; in the presence of NADPH,capable of catalyzing the reduction; also recorded: capable of reducing
CC(=O)c1ccccc1 [Acetophenone],Vmax,[2]; [20],100%
same,Substrate concentration at maximum enzyme activity,"[2]; acetophenone conversion, 0.2 mM NADPH, pH 7.0, 30° C.",5.3 mM
same,Maximum activity,"[2]; at 5.3 mM acetophenone, 0.2 mM NADPH",18.6 U/ml
same,Reduction by the enzyme (in words),[2]; in the presence of NADPH,capable of catalyzing the reduction; also recorded: capable of reducing
same,Excess substrate inhibition,[2]; up to an acetophenone concentration of 10.6 mM,no excess substrate inhibition
O=Cc1ccccc1 [Benzaldehyde],Vmax,[2]; [19],10%
O=C(O)CN(CCN(CC(=O)O)CC(=O)O)CC(=O)O [EDTA],Effect on enzyme activity (in words),[1],completely inhibited; also recorded: rapidly inactivated; also recorded: rapid inactivation
same,remaining activity at 1000 µM,[1]; [21],0%
CCCCCC(=O)CC [Ethyl pentyl ketone],Vmax,[2]; [20],66%
same,Reduction by the enzyme (in words),[2]; in the presence of NADPH,capable of catalyzing the reduction; also recorded: capable of reducing
N[C@@H](CCC(=O)N[C@@H](CS)C(=O)NCC(=O)O)C(=O)O [Glutathione],remaining activity at 1000 µM,[1]; [21],99%
NC(=O)CI [Iodoacetamide],Effect on enzyme activity (in words),[1],relatively weak inhibition
same,remaining activity at 1000 µM,[1]; [18],90%
CC(C)O [Isopropanol],Vmax,[3],18%
"CC(=O)C=C(C)C [Mesityl oxide, 4-methyl-3-pentene-2-one]",Vmax,[2]; [19],12%
CC(=O)c1ccc2ccccc2c1 [Methyl 2-naphthyl ketone],Vmax,[2]; [20],11%
CCCCCCC(C)=O [Methyl hexyl ketone],Vmax,[2]; [20],91%
same,Reduction by the enzyme (in words),[2]; in the presence of NADPH,capable of catalyzing the reduction; also recorded: capable of reducing
[Cl-].[Cl-].[Mg+2] [MgCl2],Activity remaining,[1]; [22],132%
"C[C@H](O)c1ccccc1 [Mixture II, S(-)-phenylethanol]",Enzyme activity (oxidation),[3],0 U/ml
same,Stereospecificity / effect on the enzyme (in words),[3],inhibits the enzyme
[Cl][Mn][Cl] [MnCl2],Activity remaining,[1]; [22],114%
CCN1C(=O)C=CC1=O [N-Ethylmaleimide],Effect on enzyme activity (in words),[1],relatively weak inhibition
same,remaining activity at 1000 µM,[1]; [18],81%
NC(=O)C1=CN([C@@H]2O[C@H](COP(=O)(O)OP(=O)(O)OC[C@H]3O[C@@H](n4cnc5c(N)ncnc54)[C@H](OP(=O)(O)O)[C@@H]3O)[C@@H](O)[C@H]2O)C=CC1 [NADPH],NADPH concentration at maximum enzyme activity,"[2]; 5.3 mM acetophenone, pH 7.0, 30° C.",190 µM
same,Vmax,[2]; [20],100%
same,Maximum enzyme activity,"[2]; at 190 μM NADPH, 5.3 mM acetophenone",16.9 U/ml
NC(=O)c1ccc[n+]([C@@H]2O[C@H](COP(=O)(O)OP(=O)(O)OC[C@H]3O[C@@H](n4cnc5c(N)ncnc54)[C@H](OP(=O)(O)O)[C@@H]3O)[C@@H](O)[C@H]2O)c1 [NADP^+],Vmax,[3],17%
O=S(=O)(F)Cc1ccccc1 [Phenylmethanesulfonyl fluoride],Activity remaining,[1]; [22],94%
CC(=O)C(C)(C)C [Pinacolone],Reduction by the enzyme (in words),[2],capable of catalyzing the reduction; also recorded: capable of reducing
same,Vmax,[2]; pH 7,53%
CCC(=O)c1ccccc1 [Propiophenone],Vmax,[2]; [19],43%
same,Reduction by the enzyme (in words),[2]; in the presence of NADPH,capable of catalyzing the reduction; also recorded: capable of reducing
C[C@@H](O)c1ccccc1 [R(+)-Phenylethanol],Enzyme activity (oxidation),[3],3.5 U/ml
same,Vmax,[3],11%
same,Stereospecificity / effect on the enzyme (in words),[3],highly specific
[Cl-].[Cl-].[Zn+2] [ZnCl2],Activity remaining,[1]; [22],114%
O=C(O)c1cc[c]([Hg][OH])cc1 [p-Hydroxymercurybenzoate],Effect on enzyme activity (in words),[1],relatively weak inhibition
same,Activity remaining,"[1]; addition at final concentration 0.1 mM; 5.5 mM acetophenone, 0.2 mM NADPH, pH 7.0; partially purified enzyme",92%
(±)-Methylcyclohexanone,Km,[2]; [20],70000 µM
same,Vmax,[2]; [20],109%
same,Reduction by the enzyme (in words),[2]; in the presence of NADPH,capable of catalyzing the reduction; also recorded: capable of reducing
Triton X-100,Activity remaining,[1]; [22],94%
phenylethanol dehydrogenase (Lentilactobacillus kefiri) (protein) TDRLKGKVAIVTGGTLGIGLAIADKFVEEGAKVVITGRHADVGEKAAKSIGGTDVIRFVQHDASDEAGWTKLFDTTEEAFGPVTTVVNNAGIAVSKSVEDTTTEEWRKLLSVNLDGVFFGTRLGIQRMKNKGLGASIINMSSIEGFVGDPTLGAYNASKGAVRIMSKSAALDCALKDYDVRVNTVHPGYIKTPLVDDLEGAEEMMSQRTKTPMGHIGEPNDIAWICVYLASDESKFATGAEFVVDGGYTAQ,Km,[4],3500 µM
same,Km,[5],190 µM
same,Km,[6],4300 µM
same,Km,[7],117 µM
same,Km,[8],251 µM
same,Km,[9],3380 µM
same,Km,[10],140 µM
same,Km,[11],681 µM
same,Km,[12],2740 µM
same,Km,[13],600 µM
same,Km,[14],9400 µM
same,Km,[15],37900 µM
same,Km,[16],372 µM
same,Km,[17],390 µM
